“And” between values parts separate entries of the source, which are not always exact repeats. Equal entries are not always repeated.
What was measured:
[1] = tested on: wild type HeLa cells; experiment: Etoposide-induced apoptosis in wild type HeLa cells; type: cell-based, human; conditions: 10^−8 M, 1 h; etoposide 5×10^−5 M, 6 hour
Source text: CMV promoter alone and CMV promoter-driven cDNA for mERα or mErβ were stably transfected into HeLa cells. […] Cells were trypsinized, pelleted and trypan blue positive cells enumerated.
In this experiment, instead of calvaria cells, human HeLa cells which contain undetectable, if any, estrogen receptor were used. HeLa cells were stably transfected with either a CMV promoter-driven cDNA for the murine estrogen receptor-alpha (mERα) or a CMV promoter-driven cDNA for the murine estrogen receptor-beta (mERβ). […] Cells were trypsinized, pelleted and trypan blue positive cells were enumerated.

[2] = tested on: MLO-Y4 osteocytic cells; experiment: Etoposide-induced apoptosis of MLO-Y4 osteocytic cells, trypan blue uptake; type: cell-based, murine
Description: Cells were pretreated with the indicated concentrations of the compounds for 1 hour before the addition of the pro-apoptotic agent etoposide. Apoptosis was determined after 6 hour by trypan blue uptake as described in FIG. 3. * indicates p<0.05 versus etoposide alone, by ANOVA (Student-Newman-Keuls method).
MLO-Y4 cells were pretreated for 1 hour with the pure receptor antagonist ICI182,780 (10^−7 M) before the addition of the test agents (10^−8 M). Apoptosis was induced and quantified as described in FIG. 3. * indicates p<0.05 versus etoposide alone, by ANOVA (Student-Newman-Keuls method).
In this experiment, MLO-Y4 cells were pretreated with the indicated concentrations of the various compounds for 1 h before the addition of the pro-apoptotic agent, etoposide. Apoptosis was determined after 6 h by trypan blue uptake as described in FIG. 3.

[3] = tested on: extracellular signal regulated kinases (ERKs) 1 and 2; experiment: Western blot of phosphorylated ERK1/2 in MLO-Y4 cells; type: cell-based, murine
Description: (§1) MLO-Y4 osteocytic cells were incubated for 25 minutes in serum -free medium. […] Cell lysates were prepared and proteins were separated by electrophoresis in polyacrylamide gels and transferred to PVDF membranes. Western blotting was performed using a specific antibody recognizing phosphorylated ERKs 1 and 2, followed by reblotting with an antibody recognizing total ERKs. Blots were developed by enhanced chemiluminescence.
as §1, with “MLO-Y4” for “MLO-Y4 osteocytic”, “serum-free medium in the presence or absence of 50 μM PD98059.” for “serum -free medium.”
as §1, with “In this experiment, MLO-Y4” for “MLO-Y4”, “serum-free” for “serum -free”, “extracellular signal regulated kinases” for “ERKs”, “extracellular signal regulated kinases.” for “ERKs.”, “chemiluminescence. […] This effect is too rapid to be accounted for by the classical mechanism of estrogen action.” for “chemiluminescence.”
as §1, with “In this experiment, MLO-Y4” for “MLO-Y4”, “serum-free medium in the presence or absence of 50 μM PD98059.” for “serum -free medium.”, “extracellular signal regulated kinases” for “ERKs”, “extracellular signal regulated kinases.” for “ERKs.”

[4] = BMD by dual-energy x-ray absorptiometry in intact or ovariectomized mice; type: in vivo; design: global 1 BMD / hindquart BMD (1) / spine 1 BMD / global 2 BMD / hindquart BMD (2) / spine 2 BMD / global 1 BMD (mean) / hindquart BMD (1) (mean) / spine 1 BMD (mean) / global 2 BMD (mean) / hindquart BMD (2) (mean) / spine 2 BMD (mean): unit not given here; conditions: for Global BMD: 2000 ng/g body weight for 28 days; for global 2 BMD / hindquart BMD (2) / spine 2 BMD / global 2 BMD (mean) / hindquart BMD (2) (mean) / spine 2 BMD (mean): 2000 ng/g for 28 days, end of experiment; for global 2 BMD / hindquart BMD (2) / spine 2 BMD / global 1 BMD / hindquart BMD (1) / spine 1 BMD: individual animals; for global 1 BMD / hindquart BMD (1) / spine 1 BMD / global 1 BMD (mean) / hindquart BMD (1) (mean) / spine 1 BMD (mean): 2000 ng/g group, day 0 (initial)
Description: In a representative experiment of this sort, six 4-5 month old female mice per group are screened twice for BMD in a four week period immediately prior to the initiation of the experiment to establish that peak adult bone mass has been attained. A subset of mice are then ovariectomized. Intact and ovariectomized mice are treated with vehicle, or 20, 200 or 2000 ng/g body weight estratriene-3-ol or another test compound.
Stock solutions of the test agents (10,000 μg/ml) are maintained in approximately 2.0 ml of 95% ethanol. These stocks are diluted in 95% ethanol to make 1000 μg/ml and 100 μg/ml concentrations. The concentration of the stocks is checked spectrophotometrically. For each animal injection, the test agent is diluted in sesame oil and sonicated. Test agents are administered for 28 days by subcutaneous injections on alternative days. The mice are weighed weekly and serum samples are collected at appropriate times for analysis of bone biochemical markers, such as osteocalcin or collagen cross-links. Tetracycline labeling is performed by administration of the antibiotic (30 mg/kg) at 2 and 8 days prior to the end of each experiment.
During the 28 day experiment, BMD is determined in live animals at day 0, 14 and 28. Following animal sacrifice at the end of the experiment, the vertebral bones L1-L4 are collected for fixation and embedded undecalcified in methyimethacrylate plastic for the determination of the prevalence of osteoblast and osteocyte apoptosis and other static and dynamic histomorphometric measurements. L5 vertebrae are isolated for determining anti-fracture efficacy of the compounds by assaying compression, 3 point bending and other appropriate biomechanical tests. Results confirming the expected efficacy of these compounds show decreased prevalence of osteoblast and/or osteocyte apoptosis, and/or positive BMD changes, and/or increased cancellous bone area, and/or increased rate of bone formation, and/or increased biomechanical strength.
As an example, the results of an experiment whereby 2000 ng/g body weight of estratriene-3-ol was administered for 28 days to estrogen-replete (intact) or estrogen-deficient (ovariectomized) mice are shown in Table 2.
Each row represents values for individual animals. The first three sets of numbers represent the initial BMD measurements (by dual-energy x-ray absorptiometry with Hologic QDR2000 plus, using customized software) at day 0 and the last three BMD measurements at the end of the experiment. Global=BMD of the entire skeleton minus the head and tail; hindquarters=the mean BMD of both hindlimbs; spine=the BMD of cervical, thoracic and lumbar spine.

Compound: C[C@@]12CCC[C@H]1[C@@H]1CCc3cc(O)ccc3[C@H]1CC2 [estratriene-3-ol]
- effect on etoposide-induced apoptosis of wild type HeLa cells [1]: none of the three compounds had any effect
- antiapoptotic effect on osteocytes after pretreatment with ICI182,780 ([2]; ICI182,780 10^−7 M, 1 h pretreatment): abrogated
- inhibition of etoposide-induced apoptosis of osteocytic cell line ([2]; MLO-Y4, pretreated 1 h before etoposide, apoptosis after 6 h): dose-dependently inhibited
- activation (phosphorylation) of ERKs ([3]; 10^−8 M, 5, 15 or 30 minutes): activated
- ability to activate ERKs in the presence of PD98059 ([3]; 10^−8 M, 5 minutes, 50 μM PD98059): abrogated
- Global BMD ([4]; Ovx mice, p < 0.00001): 0.0555 ± 0.0011 g/cm2
- global 2 BMD ([4]; Ovx mice): 0.0565 and 0.0557 and 0.0548 and 0.0545 and 0.0564 and 0.0568 and 0.0550 and 0.0539
- hindquart BMD (2) ([4]; Ovx mice): 0.0602 and 0.0632 and 0.0599 (2×) and 0.0624 and 0.0598 and 0.0647 and 0.0630
- spine 2 BMD ([4]; Ovx mice): 0.0608 and 0.0585 and 0.0584 and 0.0598 and 0.0610 and 0.0625 and 0.0578 and 0.0605
- global 2 BMD (mean) ([4]; Ovx mice): 0.0555
- hindquart BMD (2) (mean) ([4]; Ovx mice): 0.0618
- spine 2 BMD (mean) ([4]; Ovx mice): 0.0599
- global 1 BMD ([4]; Ovx mice): 0.0505 and 0.0542 and 0.0496 and 0.0540 and 0.0526 and 0.0569 and 0.0565 and 0.0528
- hindquart BMD (1) ([4]; Ovx mice): 0.0527 and 0.0588 and 0.0504 and 0.0596 and 0.0547 and 0.0604 and 0.0591 and 0.0582
- spine 1 BMD ([4]; Ovx mice): 0.0547 and 0.0581 and 0.0542 and 0.0586 and 0.0580 and 0.0628 and 0.0603 and 0.0568
- global 1 BMD (mean) ([4]; Ovx mice): 0.0534
- hindquart BMD (1) (mean) ([4]; Ovx mice): 0.0573
- spine 1 BMD (mean) ([4]; Ovx mice): 0.0579
- Global BMD ([4]; intact mice, p < 0.002): 0.0554 ± 0.0015 g/cm2
- global 2 BMD ([4]; intact mice): 0.0550 and 0.0543 and 0.0541 and 0.0568 (2×) and 0.0537 and 0.0574
- hindquart BMD (2) ([4]; intact mice): 0.0585 and 0.0603 and 0.0619 and 0.0629 and 0.0640 and 0.0554 and 0.0605
- spine 2 BMD ([4]; intact mice): 0.0602 and 0.0604 and 0.0601 and 0.0613 and 0.0620 and 0.0588 and 0.0632
- global 2 BMD (mean) ([4]; intact mice): 0.0554
- hindquart BMD (2) (mean) ([4]; intact mice): 0.0605
- spine 2 BMD (mean) ([4]; intact mice): 0.0609
- global 1 BMD ([4]; intact mice): 0.0486 and 0.0511 and 0.0543 and 0.0537 and 0.0533 and 0.0521 and 0.0560
- hindquart BMD (1) ([4]; intact mice): 0.0509 and 0.0565 and 0.0605 and 0.0577 and 0.0546 and 0.0544 and 0.0587
- spine 1 BMD ([4]; intact mice): 0.0511 and 0.0560 and 0.0593 and 0.0584 and 0.0571 and 0.0555 and 0.0623
- global 1 BMD (mean) ([4]; intact mice): 0.0527
- hindquart BMD (1) (mean) ([4]; intact mice): 0.0562
- spine 1 BMD (mean) ([4]; intact mice): 0.0571

Source: patent US20040224884A1, “Methods of screening for apoptosis-controlling agents for bone anabolic therapies and uses thereof” (priority 1998, published 2004)
